# Measurements reported in PubChem BioAssay AID504313 (Emory University Molecular Libraries Screening Center, 2011).
# The source made the active and inactive calls. No rule for the calls is given here.
# Target: X-box-binding protein 1 (Homo sapiens) (UniProt P17861)
# Experiment: inhibitors of XBP1 reporter signal, dose response, counter-screen, cell-based (AID 504313);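 also: CHO cells carrying an XBP1 reporter stimulated with tunicamycin; potency is for inhibition of the tunicamycin-induced reporter signal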
# Conditions: XBP1 reporter cell assay, percent of control
row,SMILES,IC50
1,Cc1cc(C2=NNC(=NC3CC3)SC2)c(C)n1-c1ccccc1,< 0.16 µM (inactive)
2,CS(=O)(=O)c1nc(-c2cccs2)cc(C(F)(F)F)n1,inactive
3,CCOc1cc(CNc2ccc(O)cc2)ccc1OCc1ccc(Cl)cc1Cl,inactive
4,CC(C)(C)c1ccc(C(=O)NC(=S)NNC(=O)c2cccs2)cc1,> 10 µM (inactive)
5,Cc1cc(C)c(S(=O)(=O)c2ccccc2)c(OC(=O)c2cc(F)c(F)cc2Cl)n1,inactive
6,Cc1ccc2c(c1)c1c(n2CC(O)Cn2c(C)nc3ccccc32)CCCC1 (configuration not stated),inactive
7,CC1=C/C(=N\OS(=O)(=O)c2ccccc2)C=CC1=O,2.9 µM
8,CS(=O)(=O)c1ccc(S(=O)CC(=O)OCc2ccccc2)c([N+](=O)[O-])c1 (configuration not stated),inactive
9,CC(C)(C)C1C/C(=C/c2ccco2)C(=O)/C(=C/c2ccco2)C1 (configuration not stated),> 10 µM (inactive)
10,COc1cc(NC(=O)COc2ccccc2[N+](=O)[O-])ccc1NC(=O)c1cccs1,> 10 µM (inactive)
11,CC(C)Oc1ccc(CNC(=O)CC(c2ccccc2)c2cc(Cl)ccc2O)cc1 (configuration not stated),> 10 µM (inactive)
12,COc1ccc(NC(=S)NC(NC(=O)/C=C/c2ccccc2)C(Cl)(Cl)Cl)cc1 (configuration not stated),> 10 µM (inactive)
13,CC1CCC(C(C)C)C(OC(=O)COC(=O)c2cc(O)ccc2N)C1 (configuration not stated),inactive
14,O=C(CCl)Nc1cc(-c2ccccc2)nn1-c1ccccc1,inactive
15,O=C(Nc1ccc(C(F)(F)F)cc1)c1cc(-c2cccnc2)nc2ccc(Br)cc12,> 10 µM (inactive)
16,CC1C/C(=C/c2ccccn2)C(=O)/C(=C/c2ccccn2)C1 (configuration not stated),2.68 µM
17,Cc1nn(Cc2c(Cl)cccc2Cl)c(C)c1NC(=O)c1cn(-c2ccccc2)nc1-c1ccccc1,inactive
18,COc1ccc(CC(=O)Nc2cccc(-c3nnc(-c4cccc(C)c4)o3)c2)cc1OC,inactive
19,COc1cc2c(cc1OC)C(c1ccccc1)N(C(=O)CCl)CC2 (configuration not stated),inactive
20,CCCCCCCC(=O)N/N=C/c1ccc(Br)cc1,4.47 µM
21,O=C1/C(=C/c2ccncc2)SC(=S)N1C1CCS(=O)(=O)C1 (configuration not stated),inactive
22,O=C(c1ccco1)N1CCN(c2c(-c3ccccc3)c3cc(Cl)ccc3[nH]c2=O)CC1,> 10 µM (inactive)
23,CCCc1cc(-c2nc(N)ncc2-c2ccc3c(c2)OCCCO3)c(O)cc1OC,5.01 µM
24,Cc1cc(C(=O)COC(=O)c2ccccc2O)c(C)n1Cc1cccs1,< 0.16 µM (inactive)
25,O=C(Nc1ccc(-c2nc3ccccc3o2)cc1)c1ccc(N2CCOCC2)c([N+](=O)[O-])c1,> 10 µM (inactive)

row,SMILES,IC50
1,N#C/C(=C\c1ccc([N+](=O)[O-])o1)C(=O)Nc1ccc(F)cc1,> 10 µM (inactive)
2,O=[N+]([O-])c1c(NCCCO)cc(Sc2ccc(Cl)cc2)c2nonc12,inactive
3,O=C(Nc1ccccc1Cl)/C(Cl)=C(\Cl)S(=O)c1ccccc1 (configuration not stated),2.4 µM
4,CCCCC(CC)C(=O)Oc1ccc(O)c(C(C)(C)C)c1 (configuration not stated),inactive
5,C#CC(=O)N(c1cccc(OC)c1)C(C(=O)NC1CCCC1)c1cccs1 (configuration not stated),inactive
6,COc1ccc(-c2cc(C3CCN(Cc4cccc(C(F)(F)F)c4)CC3)[nH]n2)cc1,inactive
7,CCOC(=O)c1c(C)[nH]c2c1-c1ccccc1C(=O)C2=O,1.41 µM
8,CC1CN(S(=O)(=O)c2ccc(C(=O)Nc3nc(-c4cc5ccccc5o4)cs3)cc2)CC(C)O1 (configuration not stated),> 10 µM (inactive)
9,Cc1ccccc1/C=N/Nc1ccnc2cc(Cl)ccc12,> 10 µM (inactive)
10,CC[C@@H](C)[C@H](NC(=O)OC(C)(C)C)c1nnc(S(=O)(=O)Cc2cc(C)ccc2C)o1,3.76 µM
11,COC(=O)/C=C\C(=O)Nc1cccc([N+](=O)[O-])c1,> 10 µM (inactive)
12,CN1C2CCC1/C(=C/c1ccccn1)C(=O)/C2=C\c1ccccn1,0.54 µM
13,CCCCc1ccc(NC(=S)Nc2ccc(Cl)c(S(=O)(=O)N(C)C)c2)cc1,> 10 µM (inactive)
14,O=[N+]([O-])c1ccc(S(=O)(=O)CC(CN2CCCCC2)N2CCCCC2)cc1 (configuration not stated),inactive
15,Cc1ccc(-c2cc3c(nn2)-c2ccccc2C3=O)cc1,inactive
16,C=C1C(=O)C=C2CN(C(=O)c3ccccc3)[C@@](Cc3ccc(F)cc3)(C(=O)OC)[C@@H]12,1.03 µM
17,Oc1ccc(/C=N/N2CCN(C3c4ccccc4-c4ccccc43)CC2)c(O)c1,> 10 µM (inactive)
18,C=CCN1C(=O)/C(=C/c2ccc(OC(C)=O)c(OCC)c2[N+](=O)[O-])SC1=S,inactive
19,CC(C)(C)C(=O)c1no[n+]([O-])c1/C(=N/O)C(C)(C)C,> 10 µM (inactive)
20,CC(=O)N(C1=C(Cl)C(=O)c2ccccc2C1=O)C1CCCCC1,inactive
21,O=C1C(C2=NC(c3ccccn3)C3C(=O)N(c4ccc(OC(F)(F)F)cc4)C(=O)C23)=C(O)c2ccccc21 (configuration not stated),inactive
22,CC1=C(C)/C(=N\OS(=O)(=O)c2ccc(C)cc2)C=CC1=O,1.63 µM
23,C/C(=N\NC(=O)c1nn(C)c(C)c1Br)c1ccc(NC(=O)c2ccoc2C)cc1,> 10 µM (inactive)
24,COc1cc(C(=O)O/N=C2\C=CC(=O)C(C)=C2)cc(OC)c1OC,> 10 µM (inactive)
25,CC(NC(=O)/C(C#N)=C/c1ccc(Cl)c([N+](=O)[O-])c1)c1ccccc1 (configuration not stated),> 10 µM (inactive)

row,SMILES,IC50
1,Nc1nnnn1/N=C/C(Br)=C/c1ccccc1,> 10 µM (inactive)
2,CC1(c2ccccc2)CC(C)(C)N2C(=O)C3(C(C#N)=C(N)Oc4cc(O)ccc43)c3cccc1c32 (configuration not stated),> 10 µM (inactive)
3,CCCC(=O)N1CCN(c2ccc(NC(=O)c3cc4ccccc4o3)cc2Cl)CC1,inactive
4,Oc1ccc(Br)cc1-c1cc(-c2ccccc2F)[nH]n1,> 10 µM (inactive)
5,O=C1c2ccccc2C(=O)c2c1oc(C(F)(F)F)c2C(=O)c1ccccc1,inactive
6,FC(F)(F)c1cccc(Sc2nc(-c3ccccc3)nnc2C(F)(F)F)c1,inactive
7,O=C(O)CSCC(=O)Nc1ccc(C2CCCCC2)cc1,inactive
8,CC(C)(C)C(=O)NC(NC(=S)Nc1sc2c(c1C#N)CCCC2)C(Cl)(Cl)Cl (configuration not stated),> 10 µM (inactive)
9,Cc1nc(COC(=O)c2cc(O)c3ccccc3c2O)cs1,> 10 µM (inactive)
10,Cc1cc(Cl)ccc1OCC(=O)N[C@@H](Cc1ccccc1)c1nc2ccccc2[nH]1,> 10 µM (inactive)
11,CS(=O)(=O)c1ncc(Cl)c(C(=O)Nc2ccc(N3CCOCC3)cc2)n1,inactive
12,CC(C)c1nnc(NC(=O)c2c(O)c3cccc4c3n(c2=O)CCC4)s1,4.37 µM
13,CCN1CCN(Cc2ccc(NC(=O)c3ccc(C)c(NC(=O)c4c[nH]c5cc(C(F)(F)F)ccc5c4=O)c3)cc2C(F)(F)F)CC1,< 0.16 µM
14,CCCOC(=O)c1ccc(Oc2c(-c3ccc(OCC)cc3O)n[nH]c2C)cc1,inactive
15,COC(=O)c1sc(-c2ccc(C(C)(C)C)cc2)cc1NC(=O)c1ccccc1C(=O)O,> 10 µM (inactive)
16,Cc1cc(C)c2nc(C(F)(F)F)c(C#N)c(N)c2c1,> 10 µM (inactive)
17,CC1CCN(S(=O)(=O)c2ccc3c(c2)C(=NO)c2cc(S(=O)(=O)N4CCC(C)CC4)ccc2-3)CC1,1.27 µM
18,S=C(NCCc1ccc(Cl)cc1)Nc1ccc(Cl)cc1Cl,> 10 µM (inactive)
19,CCOc1ccc(-c2nc(CSCC(=O)NCc3ccco3)c(C)o2)cc1,< 0.16 µM
20,O=C(Nc1ccc(OC(F)F)cc1)Nc1cccc(C(F)(F)F)c1,> 10 µM (inactive)
21,COc1ccccc1-c1cc(C(F)(F)F)nc(S(=O)(=O)CCCC(=O)NC(C)C)n1,inactive
22,Fc1ccc(Nc2nc(NCc3ccco3)c3ccccc3n2)cc1,> 10 µM (inactive)
23,O=C(NC(Nc1nc2ccc([N+](=O)[O-])cc2s1)(C(F)(F)F)C(F)(F)F)c1ccccc1Cl,0.34 µM
24,CCOC(=O)c1c(/N=C/c2c(O)n(-c3cccc(C)c3)c(=O)[nH]c2=O)sc2c1CCCC2,0.53 µM
25,CCC1CCCCN1S(=O)(=O)c1ccc(C(=O)Nc2nnc(-c3ccccc3Cl)o2)cc1 (configuration not stated),inactive

row,SMILES,IC50
1,Cc1nc2ccccn2c1C(=O)N=Nc1c(O)n(CCC(C)C)c2ccccc12,> 10 µM (inactive)
2,Cc1nc(SCC(=O)Nc2ccc(C)c(F)c2)c2oc3ccccc3c2n1,> 10 µM (inactive)
3,CC(C)=C1C2CCC1C(C(=O)Nc1sc(C)c(-c3ccc(C(C)C)cc3)c1C(N)=O)C2C(=O)O (configuration not stated),inactive
4,COc1cc(/C=C2\CC/C(=C\c3cc(OC)c(O)c(OC)c3)C2=O)cc(OC)c1O,inactive
5,CC(=O)C1=C(S(=O)(=O)c2ccc(C)cc2)CS(=O)(=O)C1,> 10 µM (inactive)
6,CCn1c(C)nc2cc(-c3nc4n(n3)Cc3ccccc3-4)ccc21,< 0.16 µM (inactive)
7,CC(C)(C)C(=O)Cn1ncc(Br)c(Br)c1=O,> 10 µM (inactive)
8,CCOc1cc(NC(=O)CCl)c(OCC)cc1NC(=O)CCl,> 10 µM (inactive)
9,O=S(=O)(NC1CC1)c1ccc(S(=O)(=O)N2CCCC3(CCCCC3)C2)cc1,inactive
10,CC(=O)Nc1ccc(NC2=Nc3ccccc3N3C2=Nc2c(c(C)nn2-c2ccccc2)C3c2ccccc2)cc1 (configuration not stated),inactive
11,O=C(CCl)Nc1cn(-c2ccccc2)nc1-c1ccc(F)cc1,> 10 µM (inactive)
12,Cc1ccc(OCC(=O)N2N=C(C(F)(F)F)CC2(O)C(C)(C)C)cc1C (configuration not stated),inactive
13,CN(C)CCCn1c(SCC(=O)Nc2nc(-c3cccc(Br)c3)cs2)nc2ccccc2c1=O,> 10 µM (inactive)
14,CC(C)=CCc1c(O)cc2oc3c(CC=C(C)C)c(O)c(O)c(CC=C(C)C)c3c(=O)c2c1O,5.24 µM
15,COc1ccc(OCc2cccc(C(=O)Nn3cc([N+](=O)[O-])cn3)c2)cc1,0.33 µM
16,OCCCNc1cc(-c2ccnc(Nc3cccc(Cl)c3)n2)ccn1,< 0.16 µM
17,CCOC(=O)c1cc(-c2cccs2)nc2c1c(C)nn2-c1ccccn1,> 10 µM (inactive)
18,CCOC(=O)c1c2ccc(OCC(=O)N/N=C/c3ccc(C)cc3)cc2n2ccccc12,inactive
19,O=C1CC(c2ccccc2)CC(O)=C1C=Nc1cccc(Cl)c1 (configuration not stated),> 10 µM (inactive)
20,CC1(c2ccccc2)CC(C)(C)n2c(O)c(C3=NC(=S)NC3=O)c3cccc1c32 (configuration not stated),> 10 µM (inactive)
21,NC(=O)c1ccc(C(F)(F)F)n(Cc2ccc(Cl)cc2)c1=O,inactive
22,Cc1ccc(Cl)cc1NC1=C/C(=N\S(=O)(=O)c2cccs2)c2ccccc2C1=O,inactive
